Legend:
[1] = tested on: scrotum and perineum itch; experiment: topical treatment of scrotum and perineum itch; assay type: in vivo, human; conditions: 18% oil-in-water cream pH 2.0, person
Description: Lactobionic acid 54% aqueous solution 30 g was uniformly mixed with an oil-in-water base 60 g. The cream thus prepared had pH 2.0 and contained 18% lactobionic acid.
A subject, having a lasting scrotum and perineum itch after each time taking a shower topically applied the above bionic acid cream to the affected areas of the skin.

[2] = antioxidant property, anthralin test method; assay type: physicochemical
Description: An antioxidant may be defined as a substance capable of preventing or inhibiting oxidation. […] The antioxidant property is readily determined by using any one of the following test methods: prevention or retardation of air oxidation of (a) anthralin, (b) hydroquinone, or (c) banana peel. A freshly prepared anthralin solution or cream is bright yellow, and an air oxidized one is brownish or black. A hydroquinone solution or cream is colorless or white color, and an air oxidized one is brownish or black. A freshly peeled banana peel is light yellow in color and an oxidized one ranges in color from tan, dark tan, brown to brownish black.
Antioxidant property of an oligosaccharide aldonic acid may be determined by utilizing anthralin test method as follows.
Anthralin also known as dithranol is a yellowish powder, and a composition containing anthralin without a suitable antioxidant is chemically unstable even at room temperature. For example, anthralin 0.05% in an oil-in-water cream changed in color from yellow to gray within 24 hours at room temperature, and the cream became brownish within 48 hours. Under anhydrous condition, anthralin 0.05% ointment prepared from white petrolatum 2 parts and mineral oil 1 part by weight changed in color from bright yellow to grayish yellow within 24 hours, and the ointment became brownish after 12 days at room temperature.
Based on the above observations, an oil-in-water cream containing 0.4% anthralin with or without a known antioxidant was used as a positive or vehicle control.

[3] = gel matrix formation on evaporation of an aqueous solution at room temperature; assay type: physicochemical
Description: In contrast to an alpha hydroxyacid and polyhydroxyacid, an oligosaccharide aldonic acid can form a gel matrix when its aqueous solution is evaporated at room temperature. The transparent gel obtained retains certain amount of water forming a clear gel matrix. The amount of water retention depends on individual oligosaccharide aldonic acid. Examples of gel matrix preparations are provided below.
In one example, a gel matrix can be formed when aqueous solution comprising an oligosaccharide aldonic acid is evaporated at room temperature. The transparent gel thus obtained retains certain amount of water forming a clear gel matrix. The amount of water retention depends on individual oligosaccharide aldonic acid. For example, maltobionic acid 1 g in a beaker was dissolved in water 1 ml, and the solution thus obtained was left at room temperature. Fifty percent of the original water had been evaporated at the end of 24 hours, and 57% at the end of 48 hours, and 60% at the end of 72 hours, and no more or minimal evaporation of water could be detected after 72 hours. A clear gel film thus obtained contained 29% water complexed with maltobionic acid molecules. In the same manner, lactobionic acid formed a clear gel matrix with 14% water molecules and cellobionic acid formed a transparent gel with 7% water molecules.
A typical experiment to determine a gel matrix formation of an oligosaccharide aldonic acid may be carried out as follows.
Maltobionic acid 1 g in a beaker of 3.6 cm diameter and 3.6 cm height was dissolved in water 1 ml, and the solution thus obtained was left at room temperature between 20-25° C. to allow a slow evaporation of the water. […] The continuous transparent film thus obtained consisted of 71% maltobionic acid and 29% water by weight, and was formed as a complex gel matrix between maltobionic acid molecules and water molecules.

[4] = by weight, 1 g acid in 1 ml water evaporated at room temperature

- gel matrix formation ([3]; 1 g in 1 ml water, 20-25° C., slow evaporation): clear continuous gel film was formed
- acid content of the gel film [3, 4]: 86%
- water retained in the gel film (gel matrix) [3, 4]: 14%
SMILES: O=C(O)[C@H](O)[C@@H](O)[C@H](O[C@@H]1O[C@H](CO)[C@H](O)[C@H](O)[C@H]1O)[C@H](O)CO [lactobionic acid]
- itch [1]: itch stopped immediately
- antioxidant grade ([2]; anthralin and hydroquinone test methods): moderate antioxidant
- colour change of anthralin cream ([2]; oil-in-water cream, 0.4% anthralin, test substance 0.1 M, 24 hours): did not change the color
